The record followed here is patent US9433622B2, “Pyrimidine compounds useful in the treatment of diseases mediated by IKKE and/or TBK1 mechanisms” (DOMAINEX LIMITED, priority 2013, dated 2016).

In one test the target is TBK1 (Homo sapiens (Human), UniProt Q9UHD2). Description: Lanthascreen TR-FRET kinase inhibition assay, TBK1. In kind it is biochemical. As to conditions: 20 μM ATP (apparent Km), 8 nM kinase, 2.5 h. As to the method: (§1) Compounds of the invention (synthesised as described below) were tested for activity against the IKKε and TBK-1 enzyme as follows:
(§2) Inhibitions studies were performed using a time-resolved fluorescence-based Lanthascreen™ assay. Phosphorylation of a fluorescein-labelled substrate peptide is measured using terbium-labeled phosphospecific antibodies.
(§3) Kinase inhibition assays (10 μL) were performed at 20° C. in 384-well plate format. […] The final reaction conditions contained 400 nM fluorescein-IkBα substrate ([…]), 20 μM ATP, 2 nM or 8 nM IKKε or TBK1 kinase respectively, and 3% DMSO in kinase assay buffer consisting of 50 mM HEPES (pH 7.5), 10 mM MgCl, 1 mM EGTA, 0.01% Brij-35.
(§4) Compound dilutions were prepared from 10 mM DMSO stocks by dilution into DMSO.
(§5) The kinase phosphorylation assay was initiated by the addition of the kinase and the reaction was allowed to proceed for 1 h or 2.5 h for IKKε and TBK-1 kinase respectively.

The next test deals with IKKε (Homo sapiens (Human), UniProt Q14164). Description: Lanthascreen TR-FRET kinase inhibition assay, IKKε. In kind it is biochemical. The following applies: 20 μM ATP (apparent Km), 2 nM kinase, 1 h. On the procedure: as §1, §2, §3, §4, §5
IKKε, sequence (Q14164 whole entry): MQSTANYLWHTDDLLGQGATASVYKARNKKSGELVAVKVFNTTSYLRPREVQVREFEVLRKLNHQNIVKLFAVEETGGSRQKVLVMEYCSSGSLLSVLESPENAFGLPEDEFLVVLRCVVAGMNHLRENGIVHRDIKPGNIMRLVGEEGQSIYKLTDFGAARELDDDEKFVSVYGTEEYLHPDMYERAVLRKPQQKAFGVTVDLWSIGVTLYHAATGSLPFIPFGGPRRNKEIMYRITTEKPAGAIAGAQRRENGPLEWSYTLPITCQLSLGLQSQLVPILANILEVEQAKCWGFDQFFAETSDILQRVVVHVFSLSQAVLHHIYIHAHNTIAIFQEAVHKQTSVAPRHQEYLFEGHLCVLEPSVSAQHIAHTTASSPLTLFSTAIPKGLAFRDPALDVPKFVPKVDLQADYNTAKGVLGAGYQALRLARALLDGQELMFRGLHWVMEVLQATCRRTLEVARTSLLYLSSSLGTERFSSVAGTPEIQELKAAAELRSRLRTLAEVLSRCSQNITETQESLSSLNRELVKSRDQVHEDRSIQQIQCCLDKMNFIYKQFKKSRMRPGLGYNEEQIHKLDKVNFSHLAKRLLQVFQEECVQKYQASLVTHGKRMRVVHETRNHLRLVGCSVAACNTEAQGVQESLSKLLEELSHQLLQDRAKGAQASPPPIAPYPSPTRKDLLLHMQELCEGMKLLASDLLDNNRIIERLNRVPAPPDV
For orientation: Time-resolved FRET reads energy transfer from a long-lived donor to a nearby acceptor.

TBK1, sequence (Q9UHD2 whole entry): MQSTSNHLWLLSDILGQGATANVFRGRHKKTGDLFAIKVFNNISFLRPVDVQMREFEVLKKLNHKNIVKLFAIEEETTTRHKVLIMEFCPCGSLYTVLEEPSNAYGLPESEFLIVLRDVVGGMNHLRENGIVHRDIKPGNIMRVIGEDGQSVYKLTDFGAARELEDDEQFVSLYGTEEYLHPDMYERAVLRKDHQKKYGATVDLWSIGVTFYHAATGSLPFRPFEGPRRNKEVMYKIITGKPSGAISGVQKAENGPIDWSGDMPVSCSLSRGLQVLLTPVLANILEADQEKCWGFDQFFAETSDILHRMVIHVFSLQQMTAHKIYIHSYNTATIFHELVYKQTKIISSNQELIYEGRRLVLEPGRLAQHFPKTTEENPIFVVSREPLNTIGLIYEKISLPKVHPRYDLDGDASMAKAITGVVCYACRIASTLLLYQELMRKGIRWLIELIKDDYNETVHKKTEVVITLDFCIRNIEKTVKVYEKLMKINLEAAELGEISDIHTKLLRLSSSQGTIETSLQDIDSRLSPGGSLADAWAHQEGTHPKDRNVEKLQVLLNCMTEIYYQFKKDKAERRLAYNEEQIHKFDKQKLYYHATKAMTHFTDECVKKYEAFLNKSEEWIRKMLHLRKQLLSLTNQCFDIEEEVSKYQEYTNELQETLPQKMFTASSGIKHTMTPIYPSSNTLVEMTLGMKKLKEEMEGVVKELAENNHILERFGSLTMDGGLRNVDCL

What is called IC50 is the concentration at which inhibition is half-maximal. With `CC(NCc1ccccc1)C(=O)Nc1ccc(Nc2nccc(-c3cnc(N4CC[C@H](F)C4)c(C#N)c3)n2)cn1` (stereo partly drawn) [DMX-55, 2-Benzylamino-N-(5-{4-[5-cyano-6-((S)-3-fluoro-pyrrolidin-1-yl)-pyridin-3-yl]-pyrimidin-2-ylamino}-pyridin-2-yl)-propionamide], the IC50 was < 30 nM at TBK1 and < 100 nM on IKKε.

For the compound `CC(N)C(=O)Nc1ccc(Nc2nccc(-c3cnc(N4CC[C@H](F)C4)c(C#N)c3)n2)cn1` (stereo partly drawn) [DMX-56, 2-Amino-N-(5-{4-[5-cyano-6-((S)-3-fluoro-pyrrolidin-1-yl)-pyridin-3-yl]-pyrimidin-2-ylamino)-pyridin-2-yl)-propionamide], the IC50 at TBK1 was < 100 nM; on IKKε it was < 30 nM.

As to `N#Cc1nc(-c2ccnc(Nc3ccc(N4CCOCC4)cc3)n2)ccc1N1CC[C@H](O)C1` [DMX-57, 3-((S)-3-Hydroxy-pyrrolidin-1-yl)-6-[2-(4-morpholin-4-yl-phenylamino)-pyrimidin-4-yl]-pyridine-2-carbonitrile], the IC50 is < 15 nM at TBK1 and < 30 nM on IKKε.

On to `N#Cc1nc(-c2ccnc(Nc3ccc(N4CCOCC4)cc3)n2)ccc1N1CCCC1` [DMX-58, 6-[2-(4-Morpholin-4-yl-phenylamino)-pyrimidin-4-yl]-3-pyrrolidin-1-yl-pyridine-2-carbonitrile], for which the IC50 on TBK1 and on IKKε was < 15 nM throughout.

As for `Cn1cc(Nc2nccc(-c3ccc(N4CC[C@H](O)C4)c(C#N)n3)n2)cn1` [DMX-59, 3-((S)-3-Hydroxy-pyrrolidin-1-yl)-6-[2-(1-methyl-1H-pyrazol-4-ylamino)-pyrimidin-4-yl]-pyridine-2-carbonitrile], the IC50 on TBK1 and on IKKε was < 100 nM each time.

On to `Cn1cc(Nc2nccc(-c3ccc(N4CCC(C(N)=O)CC4)c(C#N)n3)n2)cn1` [DMX-60, 2′-Cyano-6′-[2-(1-methyl-1H-pyrazol-4-ylamino)-pyrimidin-4-yl]-3,4,5,6-tetrahydro-2H-[1,3′]bipyridinyl-4-carboxylic acid amide], for which the IC50 on TBK1 and on IKKε was < 100 nM in each case.

For `N#Cc1cc(-c2ccnc(Nc3ccnc(N4CCOCC4)c3)n2)cnc1N1CC[C@H](F)C1` [DMX-61, 2-((S)-3-Fluoro-pyrrolidin-1-yl)-5-[2-(2-morpholin-4-yl-pyridin-4-ylamino)-pyrimidin-4-yl]-nicotinonitrile], the IC50 on TBK1 and at IKKε was < 15 nM throughout.

For the compound `CC(C)(N)C(=O)Nc1ccc(Nc2nccc(-c3cnc(N4CC[C@H](F)C4)c(C#N)c3)n2)cn1` [DMX-62, 2-Amino-N-(5-{4-[5-cyano-6-((S)-3-fluoro-pyrrolidin-1-yl)-pyridin-3-yl]-pyrimidin-2-ylamino}-pyridin-2-yl)-2-methyl-propionamide], the figures for the IC50 on TBK1 and at IKKε were < 100 nM and < 30 nM, respectively.

For the compound `N#Cc1cc(-c2ccnc(Nc3cn[nH]c3)n2)cnc1N1CC[C@H](F)C1` [DMX-63, 2-((S)-3-Fluoro-pyrrolidin-1-yl)-5-[2-(1H-pyrazol-4-ylamino)-pyrimidin-4-yl]-nicotinonitrile], the IC50 at TBK1 and at IKKε was < 15 nM each time.

On to `N#Cc1cc(-c2ccnc(Nc3ccn[nH]3)n2)cnc1N1CC[C@H](F)C1` [DMX-64, 2-((S)-3-Fluoro-pyrrolidin-1-yl)-5-[2-(2H-pyrazol-3-ylamino)-pyrimidin-4-yl]-nicotinonitrile], for which the IC50 on TBK1 was < 1000 nM; at IKKε, < 100 nM.

As for `N#Cc1cc(-c2ccnc(Nc3ccc(NC(=O)[C@@H]4CCCN4)nc3)n2)cnc1N1CC[C@H](F)C1` [DMX-65, (S)-Pyrrolidine-2-carboxylic acid (5-{4-[5-cyano-6-((S)-3-fluoro-pyrrolidin-1-yl)-pyridin-3-yl]-pyrimidin-2-ylamino}-pyridin-2-yl)-amide], the figures for the IC50 on TBK1 and at IKKε were < 100 nM and < 30 nM, respectively.

For `N#Cc1cc(-c2ccnc(Nc3ccc(NC(=O)CN4CCCC4)nc3)n2)cnc1N1CC[C@H](F)C1` [DMX-66, N-(5-{4-[5-Cyano-6-((S)-3-fluoro-pyrrolidin-1-yl)-pyridin-3-yl]-pyrimidin-2-ylamino}-pyridin-2-yl)-2-pyrrolidin-1-yl-acetamide], the IC50 at TBK1 is < 30 nM; at IKKε, < 100 nM.

`N#Cc1cc(-c2ccnc(Nc3ccc(NCCN4CCOCC4)nc3)n2)cnc1N1CC[C@H](F)C1` [DMX-67, 2-((S)-3-Fluoro-pyrrolidin-1-yl)-5-{2-[6-(2-morpholin-4-yl-ethylamino)-pyridin-3-ylamino]-pyrimidin-4-yl}-nicotinonitrile]: the IC50 on TBK1 was < 30 nM; on IKKε, < 15 nM.

As to `N#Cc1cc(-c2ccnc(Nc3ccc(CN4CCOCC4)nc3)n2)cnc1N1CC[C@H](F)C1` [DMX-68, 2-((S)-3-Fluoro-pyrrolidin-1-yl)-5-[2-(6-morpholin-4-ylmethyl-pyridin-3-ylamino)-pyrimidin-4-yl]-nicotinonitrile], the IC50 on TBK1 and at IKKε was < 15 nM each time.

As to `N#Cc1cc(-c2ccnc(Nc3ccc(NC(=O)CN4CC[C@H](F)C4)nc3)n2)cnc1N1CC[C@H](F)C1` [DMX-69, N-(5-{4-[5-Cyano-6-((S)-3-fluoro-pyrrolidin-1-yl)-pyridin-3-yl]-pyrimidin-2-ylamino}-pyridin-2-yl)-2-((S)-3-fluoro-pyrrolidin-1-yl)-acetamide], the results for the IC50 at TBK1 and on IKKε were < 100 nM and < 30 nM, respectively.

Take `N#Cc1cc(-c2ccnc(Nc3ccc(OCCN4CC[C@H](F)C4)nc3)n2)cnc1N1CC[C@H](F)C1` [DMX-70, 2-((S)-3-Fluoro-pyrrolidin-1-yl)-5-(2-{6-[2-((S)-3-fluoro-pyrrolidin-1-yl)-ethoxy]-pyridin-3-ylamino}-pyrimidin-4-yl)-nicotinonitrile]: the IC50 on TBK1 and at IKKε was < 100 nM each time.

On to `N#Cc1cc(-c2ccnc(Nc3ccnc(N4CCOCC4)c3)n2)cnc1N1CC[C@H](O)C1` [DMX-71, 2-((S)-3-Hydroxy-pyrrolidin 1-yl)-5-[2-(2-morpholin-4-yl-pyridin-4-ylamino)-pyrimidin-4-yl]-nicotinonitrile], for which the concentration for half-maximal inhibition (IC50) on TBK1 and on IKKε was < 30 nM in each case.

With `COCCNc1cc(Nc2nccc(-c3cnc(N4CC[C@H](F)C4)c(C#N)c3)n2)ccn1` [DMX-72, 2-((S)-3-Fluoro-pyrrolidin-1-yl)-5-{2-[2-(2-methoxy-ethylamino)-pyridin-4-ylamino]-pyrimidin-4-yl}-nicotinonitrile], the IC50 was < 15 nM at TBK1 and < 30 nM on IKKε.

Consider `N#Cc1cc(-c2ccnc(Nc3cccc(=O)[nH]3)n2)cnc1N1CC[C@H](F)C1` [DMX-73, 2-((S)-3-Fluoro-pyrrolidin-1-yl)-5-[2-(6-oxo-1,6-dihydro-pyridin-2-ylamino)-pyrimidin-4-yl]-nicotinonitrile], for which the IC50 on TBK1 and at IKKε was < 1000 nM throughout.

Take `CN(C(=O)CN1CCOCC1)c1ccc(Nc2nccc(-c3cnc(N4CC[C@H](F)C4)c(C#N)c3)n2)cn1` [DMX-74, N-(5-{4-[5-Cyano-6-((S)-3-fluoro-pyrrolidin-1-yl)-pyridin-3-yl]-pyrimidin-2-ylamino}-pyridin-2-yl)-N-methyl-2-morpholin-4-yl-acetamide]: the IC50 on TBK1 and at IKKε was < 100 nM in each case.

Regarding `CN(C(=O)CN1CCOCC1)c1ccc(Nc2nccc(-c3cnc(N4CC[C@H](O)C4)c(C#N)c3)n2)cn1` [DMX-75, N-(5-{4-[5-Cyano-6-((S)-3-hydroxy-pyrrolidin-1-yl)-pyridin-3-yl]-pyrimidin-2-ylamino}-pyridin-2-yl)-N-methyl-2-morpholin-4-yl-acetamide], the IC50 at TBK1 and at IKKε was < 1000 nM each time.

For `CN1Cc2ccc(Nc3nccc(-c4cnc(N5CC[C@H](F)C5)c(C#N)c4)n3)cc2C1` [DMX-76, 2-((S)-3-Fluoro-pyrrolidin-1-yl)-5-[2-(2-methyl-2,3-dihydro-1H-isoindol-5-ylamino)-pyrimidin-4-yl]-nicotinonitrile], the IC50 at TBK1 and on IKKε was < 15 nM each time.

For `COCCNCc1ccc(Nc2nccc(-c3cnc(N4CC[C@H](F)C4)c(C#N)c3)n2)cn1` [DMX-77, 2-((S)-3-Fluoro-pyrrolidin-1-yl)-5-(2-{6-[(2-methoxy-ethylamino)-methyl]-pyridin-3-ylamino}-pyrimidin-4-yl)-nicotinonitrile], the IC50 at TBK1 and at IKKε was < 100 nM throughout.

`C[C@H]1COCCN1Cc1cc(Nc2nccc(-c3cnc(N4CC[C@H](F)C4)c(C#N)c3)n2)ccn1` [DMX-78, 2-((S)-3-Fluoro-pyrrolidin-1-yl)-5-{2-[2-((S)-3-methyl-morpholin-4-ylmethyl)-pyridin-4-ylamino]-pyrimidin-4-yl}-nicotinonitrile]: the IC50 on TBK1 is < 15 nM; at IKKε, < 30 nM.

Regarding `C[C@H]1COCCN1Cc1ccc(Nc2nccc(-c3cnc(N4CC[C@H](F)C4)c(C#N)c3)n2)cn1` [DMX-79, 2-((S)-3-Fluoro-pyrrolidin-1-yl)-5-{2-[6-((S)-3-methyl-morpholin-4-ylmethyl)-pyridin-3-ylamino]-pyrimidin-4-yl}-nicotinonitrile], the IC50 on TBK1 is < 30 nM; at IKKε, < 100 nM.

In the case of `N#Cc1cc(-c2ccnc(Nc3ccc(CN4CC[C@H](F)C4)nc3)n2)cnc1N1CC[C@H](F)C1` [DMX-80, 2-((S)-3-Fluoro-pyrrolidin-1-yl)-5-{2-[6-((S)-3-fluoro-pyrrolidin-1-ylmethyl)-pyridin-3-ylamino]-pyrimidin-4-yl}-nicotinonitrile], the values for the IC50 at TBK1 and on IKKε were < 30 nM and < 15 nM, respectively.
